pIC50: −log10 of the molar value.
Biological target: T1, AhR (Homo sapiens, UniProt P35869)
T1 construct: The HepG2 CYP1A1-Luc cells do express basal luciferase activity that can be increased via potent AhR agonists or decreased via potent AhR antagonists; endogenous in cells
T1 sequence (P35869 11-848): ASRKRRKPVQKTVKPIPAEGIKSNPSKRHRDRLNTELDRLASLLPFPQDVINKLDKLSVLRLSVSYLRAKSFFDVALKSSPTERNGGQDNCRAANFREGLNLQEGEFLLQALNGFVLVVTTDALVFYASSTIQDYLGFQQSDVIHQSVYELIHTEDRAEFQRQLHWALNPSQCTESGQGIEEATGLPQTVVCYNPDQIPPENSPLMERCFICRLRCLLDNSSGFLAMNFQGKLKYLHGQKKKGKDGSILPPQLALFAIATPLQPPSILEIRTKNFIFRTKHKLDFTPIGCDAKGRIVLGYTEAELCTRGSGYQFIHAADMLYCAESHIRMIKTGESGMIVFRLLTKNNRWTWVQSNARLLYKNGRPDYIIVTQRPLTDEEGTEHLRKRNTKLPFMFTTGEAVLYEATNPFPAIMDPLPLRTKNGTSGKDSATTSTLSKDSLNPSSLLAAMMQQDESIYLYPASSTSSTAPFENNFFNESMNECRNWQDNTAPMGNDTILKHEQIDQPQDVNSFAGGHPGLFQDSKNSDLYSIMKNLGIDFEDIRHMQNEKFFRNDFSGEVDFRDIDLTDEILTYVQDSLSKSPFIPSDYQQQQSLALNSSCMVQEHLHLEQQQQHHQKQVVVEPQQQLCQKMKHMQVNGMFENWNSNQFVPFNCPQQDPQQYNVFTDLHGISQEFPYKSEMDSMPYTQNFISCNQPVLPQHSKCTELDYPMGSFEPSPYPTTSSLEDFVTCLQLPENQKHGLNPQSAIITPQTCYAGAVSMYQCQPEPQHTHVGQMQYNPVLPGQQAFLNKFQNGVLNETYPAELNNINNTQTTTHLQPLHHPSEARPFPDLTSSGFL
Assay: AhR direct luciferase reporter assay in HepG2 cells (HepG2 CYP1A1-LUC)
Type: cell-based
Settings: luciferase activity after 18 hours, medium with no exogenous AhR agonist or 10 nM VAF347, read-out: AhR potency (AhR antagonistic potency, IC50 class)
Description: AhR Direct Luciferase Reporter Assay in HepG2 Cells
A stable cell line (HepG2 CYP1A1-LUC) was used in which part of the promoter region of the human CYP1A1 gene is stably integrated into the genome of human HepG2 hepatocytes (DSZM #ACC 180) in front of a Photinus pyralis Firefly Luciferase gene. A 1210 bp fragment comprising part of the human CYP1A1 promoter was isolated via SacI and BgIII restriction digestion from Lightswitch Clone S714555 (SwitchGearGenomics) and inserted between the SacI and BgIII sites in pGL4.30 (Promega #E8481) in front of the Firefly Luciferase gene. The resulting vector was linearized with NotI, transfected into HepG2 cells (DSMZ #ACC 180) and stably transfected clones selected with 250 μg/ml Hygromycin B. After repetitive rounds of subcloning and testing for robustly regulated luciferase activity after AhR agonist stimulation, a stable clonal HepG2 CYP1A1-Luc cell line was selected.
The HepG2 CYP1A1-Luc cells do express basal luciferase activity that can be increased via potent AhR agonists or decreased via potent AhR antagonists, added to the growth medium of the cells.
In typical reporter assays performed with this cell line, cells are grown in 96-well plates and AhR modulators are titrated into the growth medium in serial dilutions in RPMI-1640 Medium (Sigma #R7509) supplemented with 8,6% fetal calf serum (Sigma #F7524) and containing either no exogenous AhR agonist or 10 nM of the potent AhR agonist VAF347 (Calbiochem #182690). Cells are further cultivated for 18 hours and luciferase activities are determined from extracts of cells in buffers containing D-Luciferine and ATvP using a LUMIstar Optima microplate Luminometer from BMG Labtech.

Row | SMILES | pIC50
1 | Cn1ncnc1C(=O)Nc1ccc2cc(-c3cc(Cl)ccc3C(F)(F)F)[nH]c2n1 [Example 1/26, N-(2-(5-Chloro-2-(trifluoromethyl)phenyl)-1H-pyrrolo[2,3-b]pyridin-6-yl)-1-methyl-11H-1,2,4-triazole-5-carboxamide] | > 7.00
2 | Cn1ncnc1C(=O)Nc1ccc2cc(-c3cc(C4CC4)ccc3C(F)(F)F)[nH]c2n1 [Example 1/27, N-(2-(5-Cyclopropyl-2-(trifluoromethyl)phenyl)-1H-pyrrolo[2,3-b]pyridin-6-yl)-1-methyl-1H-1,2,4-triazole-5-carboxamide] | > 7.00
3 | Cn1ncnc1C(=O)Nc1ccc2cc(-c3cc(F)c(F)cc3C(F)F)[nH]c2n1 [Example 1/28, N-(2-(2-(Difluoromethyl)-4,5-difluorophenyl)-1H-pyrrolo[2,3-b]pyridin-6-yl)-1-methyl-1H-1,2,4-triazole-5-carboxamide] | > 7.00
4 | CCc1ccc(C(F)(F)F)c(-c2cc3ccc(NC(=O)c4ncnn4C)nc3[nH]2)c1 [Example 1/29, N-(2-(5-Ethyl-2-(trifluoromethyl)phenyl)-1H-pyrrolo[2,3-b]pyridin-6-yl)-1-methyl-1H-1,2,4-triazole-5-carboxamide] | > 7.00
5 | Cn1ncnc1C(=O)Nc1ccc2cc(-c3cc(C(F)(F)F)ccc3C(F)(F)F)[nH]c2n1 [Example 1/30, N-(2-(2,5-Bis(trifluoromethyl)phenyl)-1H-pyrrolo[2,3-b]pyridin-6-yl)-1-methyl-1H-1,2,4-triazole-5-carboxamide] | > 7.00
6 | Cc1cc2cc(-c3ccccc3C(F)(F)F)[nH]c2nc1NC(=O)c1ncnn1C [Example 1/31, 1-Methyl-N-(5-methyl-2-(2-(trifluoromethyl)phenyl)-1H-pyrrolo[2,3-b]pyridin-6-yl)-1H-1,2,4-triazole-5-carboxamide] | 6.00 to 7.00
7 | Cn1ncnc1C(=O)Nc1ccc2cc(-c3ccoc3C(F)F)[nH]c2n1 [Example 1/32, N-(2-(2-(Difluoromethyl)furan-3-yl)-1H-pyrrolo[2,3-b]pyridin-6-yl)-1-methyl-1H-1,2,4-triazole-5-carboxamide] | > 7.00
8 | Cc1ccc(C(F)(F)F)c(-c2cc3ccc(NC(=O)c4ncnn4C)nc3[nH]2)c1 [Example 1/33, 1-Methyl-N-(2-(5-methyl-2-(trifluoromethyl)phenyl)-1H-pyrrolo[2,3-b]pyridin-6-yl)-1H-1,2,4-triazole-5-carboxamide] | > 7.00
9 | Cn1ncnc1C(=O)Nc1ccc2cc(-c3cc(Cl)ccc3C(F)F)[nH]c2n1 [Example 1/34, N-(2-(5-Chloro-2-(difluoromethyl)phenyl)-1H-pyrrolo[2,3-b]pyridin-6-yl)-1-methyl-1H-1,2,4-triazole-5-carboxamide] | > 7.00
10 | Cc1ccc(C(F)F)c(-c2cc3ccc(NC(=O)c4ncnn4C)nc3[nH]2)c1 [Example 1/35, N-(2-(2-(Difluoromethyl)-5-methylphenyl)-1H-pyrrolo[2,3-b]pyridin-6-yl)-1-methyl-1H-1,2,4-triazole-5-carboxamide] | > 7.00
11 | Cn1nc(C(N)=O)cc1C(=O)Nc1ccc2cc(-c3ccccc3C(F)(F)F)[nH]c2n1 [Example 2, 1-Methyl-n^5-(2-(2-(trifluoromethyl)phenyl)-1H-pyrrolo[2,3-b]pyridin-6-yl)-1H-pyrazole-3,5-dicarboxamide] | 6.00 to 7.00
12 | Cn1ncnc1C(=O)Nc1ccc2cc(-c3ccccc3C(F)(F)F)n(C)c2n1 [Example 3, 1-Methyl-N-(1-methyl-2-(2-(trifluoromethyl)phenyl)-1H-pyrrolo[2,3-b]pyridin-6-yl)-1H-1,2,4-triazole-5-carboxamide] | 6.00 to 7.00
13 | Cn1ncnc1C(=O)Nc1ccc2cc(-c3ccccc3C3CC3)[nH]c2n1 [Example 4, N-(2-(2-Cyclopropylphenyl)-1H-pyrrolo[2,3-b]pyridin-6-yl)-1-methyl-1H-1,2,4-triazole-5-carboxamide] | > 7.00
14 | Cn1ncnc1C(=O)Nc1ccc2cc(-c3cc(F)ccc3C(F)F)[nH]c2n1 [Example 4/9, N-(2-(2-(difluoromethyl)-5-fluorophenyl)-1H-pyrrolo[2,3-b]pyridin-6-yl)-1-methyl-1H-1,2,4-triazole-5-carboxamide] | > 7.00
15 | Cn1cncc1C(=O)Nc1ccc2cc(-c3ccccc3C(F)F)[nH]c2n1 [Example 5, N-(2-(2-(Difluoromethyl)phenyl)-1H-pyrrolo[2,3-b]pyridin-6-yl)-1-methyl-1H-imidazole-5-carboxamide] | 6.00 to 7.00
16 | Cn1ncnc1C(=O)Nc1ccc2cc(-c3ccccc3C(=O)O)[nH]c2n1 [Example 6, 2-(6-(1-Methyl-1H-1,2,4-triazole-5-carboxamido)-1H-pyrrolo[2,3-b]pyridin-2-yl)benzoic acid] | < 6.00
17 | Cn1ncnc1C(=O)Nc1ccc2cc(-c3ccccc3C(N)=O)[nH]c2n1 [Example 7, N-(2-(2-Carbamoylphenyl)-1H-pyrrolo[2,3-b]pyridin-6-yl)-1-methyl-1H-1,2,4-triazole-5-carboxamide] | 6.00 to 7.00
18 | CN(C)C(=O)c1ccccc1-c1cc2ccc(NC(=O)c3ncnn3C)nc2[nH]1 [Example 8, N-(2-(2-(Dimethylcarbamoyl)phenyl)-1H-pyrrolo[2,3-b]pyridin-6-yl)-1-methyl-1H-1,2,4-triazole-5-carboxamide] | < 6.00
19 | Cn1ncnc1C(=O)Nc1ccc2cc(-c3ccc(C(=O)O)cc3)[nH]c2n1 [Example 12/1, 4-(6-(1-Methyl-1H-1,2,4-triazole-5-carboxamido)-1H-pyrrolo[2,3-b]pyridin-2-yl)benzoic Acid] | < 6.00
20 | Cn1ncnc1C(=O)Nc1ccc2c(C#N)c(-c3ccccc3C(F)F)[nH]c2n1 [Example 14, N-(3-Cyano-2-(2-(difluoromethyl)phenyl)-1H-pyrrolo[2,3-b]pyridin-6-yl)-1-methyl-1H-1,2,4-triazole-5-carboxamide] | > 7.00
